Measured values published in US20260258032A1, “TYROSINE KINASE 2 INHIBITORS AND USES THEREOF” (BIOGEN MA INC., priority 2022, published 2026).
pIC50: −log10 of the molar value. Where a name gives a salt, the structure may show the parent alone.

Columns and labels:
[1] = tested on: Tyk2 kinase activity on STAT4; assay: pSTAT4 cell assay (MSD, NK92 cells); type: cell-based; conditions: compounds 1 hr, stimulated 15 minutes
How it was run: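 IC50 values come from 4-parameter logistic fits of normalized percent activity. Phospho-STAT was read by MSD (anti-STAT4 antibodies) in NK92 lysates after a 15 min stimulation with 30 ng/mL IL2. The serum-starved cells had been given compound for 1 h (10 points, four-fold, top 10 μM).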

JH2 domain of human Tyk2 = target: T1, JH2 domain of human Tyk2 (Homo sapiens, UniProt P29597); assay: JH2 biochemical assay (TR-FRET probe displacement); type: binding; conditions: JH2 biochemical assay
T1 construct: 10×His-tagged TYK2 JH2 domain (amino acid 575-876)
T1 sequence (P29597 575-876): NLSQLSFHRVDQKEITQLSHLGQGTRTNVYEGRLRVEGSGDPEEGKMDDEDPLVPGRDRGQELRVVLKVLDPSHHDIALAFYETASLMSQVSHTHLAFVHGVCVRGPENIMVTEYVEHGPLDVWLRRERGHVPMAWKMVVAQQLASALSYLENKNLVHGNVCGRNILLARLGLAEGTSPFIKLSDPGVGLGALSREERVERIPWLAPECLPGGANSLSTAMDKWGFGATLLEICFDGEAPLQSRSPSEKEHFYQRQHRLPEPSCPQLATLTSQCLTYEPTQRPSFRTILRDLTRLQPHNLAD
How it was run: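 A probe-displacement TR-FRET readout: compounds, tested in 3-fold, 10-point dilutions starting at […], compete with 2 nM tracer for 2 nM His-tagged JH2 (residues 575-876) detected by 0.1 nM Tb-anti-His over 60 min. IC50 comes from 4-parameter fits of normalized 520/495 nm ratios.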

SMILES | pIC50 [1] | pIC50 (JH2 domain of human Tyk2)
CCO/C=C\c1cc(N2CC3(CC3)c3cnc(NC(C)=O)cc32)nc(C(C)(F)F)n1 [Example 329, (Z)-N-(1′-(2-(1,1-difluoroethyl)-6-(2-ethoxyvinyl)pyrimidin-4-yl)-1′,2′-dihydrospiro[cyclopropane-1,3′-pyrrolo[3,2-c]pyridin]-6′-yl)acetamide] | 7.00 to 8.00 | ≥ 8.00
CCOCCc1cc(N2CC3(CC3)c3cnc(NC(C)=O)cc32)nc(C(C)(F)F)n1 [Example 330, N-(1′-(2-(1,1-difluoroethyl)-6-(2-ethoxyethyl)pyrimidin-4-yl)-1′,2′-dihydrospiro[cyclopropane-1,3′-pyrrolo[3,2-c]pyridin]-6′-yl)acetamide trifluoroacetate] | 7.00 to 8.00 | ≥ 8.00
CC(=O)Nc1cc2c(cn1)C1(CC1)CN2c1nc(C)cc(F)n1 [Example 331, N-(1′-(4-fluoro-6-methylpyrimidin-2-yl)-1′,2′-dihydrospiro[cyclopropane-1,3′-pyrrolo[3,2-c]pyridin]-6′-yl)acetamide trifluoroacetate] | ≤ 6.00 | 6.00 to 7.00
CC(=O)Nc1cc2c(cn1)C1(CC1)CN2c1cc(C)nc(F)n1 [Example 332, N-(1′-(2-fluoro-6-methylpyrimidin-4-yl)-1′,2′-dihydrospiro[cyclopropane-1,3′-pyrrolo[3,2-c]pyridin]-6′-yl)acetamide trifluoroacetate] | ≤ 6.00 | 6.00 to 7.00
CC(=O)Nc1cc2c(cn1)C1(CC1)CN2c1cc(C)cc(OCC(F)(F)F)n1 [Example 333, N-(1′-(4-methyl-6-(2,2,2-trifluoroethoxy)pyridin-2-yl)-1′,2′-dihydrospiro[cyclopropane-1,3′-pyrrolo[3,2-c]pyridin]-6′-yl)acetamide trifluoroacetate] | ≤ 6.00 | 6.00 to 7.00
CC(=O)Nc1cc2c(cn1)C1(CC1)CN2c1cc(C)cc(OC(C)C)n1 [Example 334, N-(1′-(6-isopropoxy-4-methylpyridin-2-yl)-1′,2′-dihydrospiro[cyclopropane-1,3′-pyrrolo[3,2-c]pyridin]-6′-yl)acetamide trifluoroacetate] | ≤ 6.00 | 7.00 to 8.00
CCOc1cc(C)cc(N2CC3(CC3)c3cnc(NC(C)=O)cc32)n1 [Example 335, N-(1′-(6-ethoxy-4-methylpyridin-2-yl)-1′,2′-dihydrospiro[cyclopropane-1,3′-pyrrolo[3,2-c]pyridin]-6′-yl)acetamide trifluoroacetate] | ≤ 6.00 | 7.00 to 8.00
COC(C)(C)COc1cc(C)cc(N2CC3(CC3)c3cnc(NC(C)=O)cc32)n1 [Example 336, N-(1′-(6-(2-methoxy-2-methylpropoxy)-4-methylpyridin-2-yl)-1′,2′-dihydrospiro[cyclopropane-1,3′-pyrrolo[3,2-c]pyridin]-6′-yl)acetamide trifluoroacetate] | ≤ 6.00 | 6.00 to 7.00
CC(=O)Nc1cc2c(cn1)C1(CC1)CN2c1cc(C)cc(OC2CCC(O)C2)n1 (stereo not shown) [Example 337, N-(1′-(6-((3-hydroxycyclopentyl)oxy)-4-methylpyridin-2-yl)-1′,2′-dihydrospiro[cyclopropane-1,3′-pyrrolo[3,2-c]pyridin]-6′-yl)acetamide trifluoroacetate] | 6.00 to 7.00 | 7.00 to 8.00
COC1CCC(Oc2cc(C)cc(N3CC4(CC4)c4cnc(NC(C)=O)cc43)n2)C1 (stereo not shown) [Example 338, N-(1′-(6-((3-methoxycyclopentyl)oxy)-4-methylpyridin-2-yl)-1′,2′-dihydrospiro[cyclopropane-1,3′-pyrrolo[3,2-c]pyridin]-6′-yl)acetamide trifluoroacetate] | 6.00 to 7.00 | 6.00 to 7.00
CC(=O)Nc1cc2c(cn1)C1(CC1)CN2c1cc(C)cc(OC2CCOC2)n1 (stereo not shown) [Example 339, N-(1′-(4-methyl-6-((tetrahydrofuran-3-yl)oxy)pyridin-2-yl)-1′,2′-dihydrospiro[cyclopropane-1,3′-pyrrolo[3,2-c]pyridin]-6′-yl)acetamide trifluoroacetate] | ≤ 6.00 | 7.00 to 8.00
CC(=O)Nc1cc2c(cn1)C1(CC1)CN2c1cc(C)cc(OC2CCC2)n1 [Example 340, N-(1′-(6-cyclobutoxy-4-methylpyridin-2-yl)-1′,2′-dihydrospiro[cyclopropane-1,3′-pyrrolo[3,2-c]pyridin]-6′-yl)acetamide trifluroacetate] | ≤ 6.00 | 7.00 to 8.00
CC(=O)Nc1cc2c(cn1)C1(CC1)CN2c1cc(C)cc(OC2COC2)n1 [Example 341, N-(1′-(4-methyl-6-(oxetan-3-yloxy)pyridin-2-yl)-1′,2′-dihydrospiro[cyclopropane-1,3′-pyrrolo[3,2-c]pyridin]-6′-yl)acetamide trifluoroacetate] | ≤ 6.00 | ≤ 6.00
CC(=O)Nc1cc2c(cn1)C1(CC1)CN2c1cc(C)cc(OC2CC(O)C2)n1 (stereo not shown) [Example 342, N-(1′-(6-(3-hydroxycyclobutoxy)-4-methylpyridin-2-yl)-1′,2′-dihydrospiro[cyclopropane-1,3′-pyrrolo[3,2-c]pyridin]-6′-yl)acetamide] | ≤ 6.00 | 6.00 to 7.00
COC1CC(Oc2cc(C)cc(N3CC4(CC4)c4cnc(NC(C)=O)cc43)n2)C1 (stereo not shown) [Example 343, N-(1′-(6-(3-methoxycyclobutoxy)-4-methylpyridin-2-yl)-1′,2′-dihydrospiro[cyclopropane-1,3′-pyrrolo[3,2-c]pyridin]-6′-yl)acetamide trifluoroacetate] | ≤ 6.00 | 6.00 to 7.00
CC(=O)Nc1cc2c(cn1)C1(CC1)CN2c1cc(C)cc(OC2CC(C#N)C2)n1 (stereo not shown) [Example 344, N-(1′-(6-(3-cyanocyclobutoxy)-4-methylpyridin-2-yl)-1′,2′-dihydrospiro[cyclopropane-1,3′-pyrrolo[3,2-c]pyridin]-6′-yl)acetamide trifluoroacetate] | ≤ 6.00 | 6.00 to 7.00
COCC1CC(Oc2cc(C)cc(N3CC4(CC4)c4cnc(NC(C)=O)cc43)n2)C1 (stereo not shown) [Example 345, N-(1′-(6-(3-(methoxymethyl)cyclobutoxy)-4-methylpyridin-2-yl)-1′,2′-dihydrospiro[cyclopropane-1,3′-pyrrolo[3,2-c]pyridin]-6′-yl)acetamide trifluoroacetate] | ≤ 6.00 | 6.00 to 7.00
CC(=O)Nc1cc2c(cn1)C1(CC1)CN2c1cc(C)cc(OC2CC(F)C2)n1 (stereo not shown) [Example 346, N-(1′-(6-(3-fluorocyclobutoxy)-4-methylpyridin-2-yl)-1′,2′-dihydrospiro[cyclopropane-1,3′-pyrrolo[3,2-c]pyridin]-6′-yl)acetamide trifluoroacetate] | ≤ 6.00 | 6.00 to 7.00
CC(=O)Nc1cc2c(cn1)C1(CC1)CN2c1cc(C)cc(OC2CC(C)C2)n1 (stereo not shown) [Example 347, N-(1′-(4-methyl-6-(3-methylcyclobutoxy)pyridin-2-yl)-1′,2′-dihydrospiro[cyclopropane-1,3′-pyrrolo[3,2-c]pyridin]-6′-yl)acetamide trifluoroacetate] | ≤ 6.00 | 6.00 to 7.00
CC(=O)Nc1cc2c(cn1)C1(CC1)CN2c1cc(C)cc(OC2CC(F)C2)n1 (stereo not shown) [Example 348, N-(1′-(6-(3-fluorocyclobutoxy)-4-methylpyridin-2-yl)-1′,2′-dihydrospiro[cyclopropane-1,3′-pyrrolo[3,2-c]pyridin]-6′-yl)acetamide trifluoroacetate] | ≤ 6.00 | 6.00 to 7.00
